The source of these data is patent US7265120B2, “Pyrazine derivatives and pharmaceutical use thereof” (Astellas Pharma Inc., priority 2004, dated 2007).

The molecule `CC(C)n1nc(-c2nc(-c3nc(-c4ccccc4)cs3)c(N)nc2-c2ccccc2)ccc1=O` [Example 28, 6-[5-Amino-3-phenyl-6-(4-phenyl-thiazol-2-yl)-2-pyrazinyl]-2-isopropyl-3(2H)-pyridazinone] came in with a melting point of 240 to 242 °C.
Under `CC(C)n1nc(-c2nc(N)c(C(N)=O)nc2-c2ccccc2)ccc1=O` [Example 29, 3-Amino-5-(1-isopropyl-6-oxo-1,6-dihydro-3-pyridazinyl)-6-phenyl-2-pyrazinecarboxamide] stands 217 to 220 °C; under `COc1ccc(CNc2nc(-c3ccccc3)c(-c3ccc(=O)n(C(C)C)n3)nc2C(=O)O)cc1` [Example 46, 6-(1-isopropyl-6-oxo-1,6-dihydro-3-pyridazinyl)-3-[(4-methoxybenzyl)amino]-5-phenyl-2-pyrazinecarboxylic acid], 216.5 to 217 °C.
The result for `COc1ccc(CNc2nc(-c3ccccc3)c(-c3ccc(=O)n(C(C)C)n3)nc2C#N)cc1` [Example 47, 6-(1-isopropyl-6-oxo-1,6-dihydro-3-pyridazinyl)-3-[(4-methoxybenzyl)amino]-5-phenyl-2-pyrazinecarbonitrile] reads 89 to 93 °C; that for `COc1ccc(CNc2cnc(-c3ccc(=O)n(C(C)C)n3)c(-c3ccccc3)n2)cc1` [Example 49, 2-isopropyl-6-{5-[(4-methoxybenzyl)amino]-3-phenyl-2-pyrazinyl}-3(2H)-pyridazinone], 138 to 140 °C; that for `COc1ccc(CNc2cnc(-c3ccccc3)c(-c3ccc(=O)n(C(C)C)n3)n2)cc1` [Example 49, 2-isopropyl-6-{6-[(4-methoxybenzyl)amino]-3-phenyl-2-pyrazinyl}-3(2H)-pyridazinone], 173 to 174 °C.
On to `CC(C)n1nc(-c2nc(N)cnc2-c2ccccc2)ccc1=O` [Example 50, 6-(6-amino-3-phenyl-2-pyrazinyl)-2-isopropyl-3(2H)-pyridazinone], for which the melting point was 214 to 217 °C.
Regarding `COc1ccc(CN(Cc2ccc(OC)cc2)c2nc(-c3ccccc3)c(-c3ccc(=O)n(C(C)C)n3)nc2C#N)cc1` [Example 51, 3-[bis(4-methoxybenzyl)amino]-6-(1-isopropyl-6-oxo-1,6-dihydro-3-pyridazinyl)-5-phenyl-2-pyrazinecarbonitrile], the melting point lay within 207 to 209 °C.
`COc1ccc(CN(Cc2ccc(OC)cc2)c2nc(-c3ccccc3)c(-c3ccc(=O)n(C(C)C)n3)nc2C(N)=O)cc1` [Example 52, 3-[bis(4-methoxybenzyl)amino]-6-(1-isopropyl-6-oxo-1,6-dihydro-3-pyridazinyl)-5-phenyl-2-pyrazinecarboxamide] yielded a melting point of 120 to 122.5 °C.
`CC(C)n1nc(-c2nc(Br)c(N)nc2-c2ccccc2)ccc1=O` [Example 53, 6-(5-amino-6-bromo-3-phenyl-2-pyrazinyl)-2-isopropyl-3(2H)-pyridazinone] had a melting point of 204 to 206 °C.
The molecule `CSc1nc(-c2ccc(=O)n(C(C)C)n2)c(-c2ccccc2)nc1N` [Example 54, 6-[5-amino-6-(methylthio)-3-phenyl-2-pyrazinyl]-2-isopropyl-3(2H)-pyridazinone] came in with a melting point of 211 to 214 °C.
Turning to `CC(C)n1nc(-c2nc([S+](C)[O-])c(N)nc2-c2ccccc2)ccc1=O` (centres unmarked) [Example 55, 6-[5-amino-6-(methylsulfinyl)-3-phenyl-2-pyrazinyl]-2-isopropyl-3(2H)-pyridazinone], the melting point was in the range of 225 to 227 °C.
Take `CC(C)n1nc(-c2nc(S(C)(=O)=O)c(N)nc2-c2ccccc2)ccc1=O` [Example 55, 6-[5-amino-6-(methylsulfonyl)-3-phenyl-2-pyrazinyl]-2-isopropyl-3(2H)-pyridazinone]: the melting point is 249 to 251 °C.
In the case of `CCn1nc(-c2nc(C(=O)O)c(NCc3ccc(OC)cc3)nc2-c2ccccc2)ccc1=O` [Example 57, 6-(1-ethyl-6-oxo-1,6-dihydro-3-pyridazinyl)-3-[(4-methoxybenzyl)amino]-5-phenyl-2-pyrazinecarboxylic acid], the melting point was greater than 250 °C.
`CCn1nc(-c2ncc(NCc3ccc(OC)cc3)nc2-c2ccccc2)ccc1=O` [Example 58, 2-ethyl-6-{5-[(4-methoxybenzyl)amino]-3-phenyl-2-pyrazinyl}-3(2H)-pyridazinone] displayed a melting point of 148 to 150 °C.
In the case of `CCn1nc(-c2ncc(N)nc2-c2ccccc2)ccc1=O` [Example 59, 6-(5-amino-3-phenyl-2-pyrazinyl)-2-ethyl-3(2H)-pyridazinone], the melting point lay in the range of 227 to 229 °C.
`Cn1nc(-c2nc(Br)c(N)nc2-c2ccccc2)ccc1=O` [Example 60, 6-(5-amino-6-bromo-3-phenyl-2-pyrazinyl)-2-methyl-3(2H)-pyridazinone] yielded a melting point of 220 to 222 °C.
`CSc1nc(-c2ccc(=O)n(C)n2)c(-c2ccccc2)nc1N` [Example 61, 6-[5-amino-6-(methylthio)-3-phenyl-2-pyrazinyl]-2-methyl-3(2H)-pyridazinone]: the melting point was in the range of 204 to 205.5 °C.
The result for `Cn1nc(-c2nc([S+](C)[O-])c(N)nc2-c2ccccc2)ccc1=O` (centres unmarked) [Example 62, 6-[5-amino-6-(methylsulfinyl)-3-phenyl-2-pyrazinyl]-2-methyl-3(2H)-pyridazinone] reads 209 to 210.5 °C; that for `Cn1nc(-c2nc(S(C)(=O)=O)c(N)nc2-c2ccccc2)ccc1=O` [Example 62, 6-[5-amino-6-(methylsulfonyl)-3-phenyl-2-pyrazinyl]-2-methyl-3(2H)-pyridazinone], 231 to 233 °C.
As for `CC(C)n1nc(-c2ncc(N=S(C)C)nc2-c2ccccc2)ccc1=O` [Example 65, 6-{5-[(dimethyl-lambda˜4˜-sulfanylidene)amino]-3-phenyl-2-pyrazinyl}-2-isopropyl-3(2H)-pyridazinone], the melting point fell in the range of 190 to 194 °C.
Molecule `CC(C)n1nc(-c2nc(Br)c(N=O)nc2-c2ccccc2)ccc1=O` [Example 67, 6-(6-bromo-5-nitroso-3-phenyl-2-pyrazinyl)-2-isopropyl-3(2H)-pyridazinone] returned a melting point of 164 to 166 °C.
`CC(C)n1nc(-c2nc(O)cnc2-c2ccccc2)ccc1=O` [Example 68, 6-(6-hydroxy-3-phenyl-2-pyrazinyl)-2-isopropyl-3(2H)-pyridazinone] registered a melting point of 198 to 200 °C.
`COCOCC#Cc1nc(-c2ccc(=O)n(C(C)C)n2)c(-c2ccccc2)nc1N` [Example 71, 6-{5-amino-6-[3-(methoxymethoxy)-1-propyn-1-yl]-3-phenyl-2-pyrazinyl}-2-isopropyl-3(2H)-pyridazinone] came in with a melting point of 133 to 135 °C.
`CC(C)n1nc(-c2nc(C#CC3(O)CCCCC3)c(N)nc2-c2ccccc2)ccc1=O` [Example 73, 6-{5-amino-6-[(1-hydroxycyclohexyl)ethynyl]-3-phenyl-2-pyrazinyl}-2-isopropyl-3(2H)-pyridazinone] came in with a melting point of 238 to 240 °C.
`CC(C)n1nc(-c2nc(C#Cc3ccccn3)c(N)nc2-c2ccccc2)ccc1=O` [Example 74, 6-[5-amino-3-phenyl-6-(2-pyridylethynyl)-2-pyrazinyl]-2-isopropyl-3(2H)-pyridazinone] came in with a melting point of 245.5 to 247 °C.
Take `C#Cc1nc(-c2ccc(=O)n(C(C)C)n2)c(-c2ccccc2)nc1N` [Example 76, 6-(5-amino-6-ethynyl-3-phenyl-2-pyrazinyl)-2-isopropyl-3(2H)-pyridazinone]: the melting point was 217 °C (dec.).
Turning to `Cn1nc(-c2nc(C#Cc3ccccc3)c(N)nc2-c2ccccc2)ccc1=O` [Example 77, 6-[5-amino-3-phenyl-6-(phenylethynyl)-2-pyrazinyl]-2-methyl-3(2H)-pyridazinone], the melting point is 234 to 236 °C.
With `CC(C)n1nc(-c2nc(-c3ccccc3)c(N)nc2-c2ccccc2)ccc1=O` [Example 78, 6-(5-amino-3,6-diphenyl-2-pyrazinyl)-2-isopropyl-3(2H)-pyridazinone], the melting point lay within 225 to 226 °C.
In the case of `CC(C)n1nc(-c2nc(-c3ccsc3)c(N)nc2-c2ccccc2)ccc1=O` [Example 79, 6-[5-amino-3-phenyl-6-(3-thienyl)-2-pyrazinyl]-2-isopropyl-3(2H)-pyridazinone], the melting point fell in the range of 228 to 230 °C.
`CC(C)n1nc(-c2nc(-c3cccs3)c(N)nc2-c2ccccc2)ccc1=O` [Example 80, 6-[5-amino-3-phenyl-6-(2-thienyl)-2-pyrazinyl]-2-isopropyl-3(2H)-pyridazinone] came in with a melting point of 181 to 183 °C.
`CC(C)n1nc(-c2nc(-c3ccoc3)c(N)nc2-c2ccccc2)ccc1=O` [Example 81, 6-[5-amino-6-(3-furyl)-3-phenyl-2-pyrazinyl]-2-isopropyl-3(2H)-pyridazinone]: the melting point fell in the range of 233 to 235 °C.
Under `CC(C)n1nc(-c2nc(-c3ccncc3)c(N)nc2-c2ccccc2)ccc1=O` [Example 82, 6-[5-amino-3-phenyl-6-(4-pyridyl)-2-pyrazinyl]-2-isopropyl-3(2H)-pyridazinone] stands 222 to 224 °C.
Molecule `COc1ccc(-c2nc(-c3ccc(=O)n(C(C)C)n3)c(-c3ccccc3)nc2N)cn1` [Example 83, 6-[5-amino-6-(6-methoxy-3-pyridyl)-3-phenyl-2-pyrazinyl]-2-isopropyl-3(2H)-pyridazinone] gave a melting point of 230 to 232.5 °C.
As to `CC(C)n1nc(-c2nc(-c3cccnc3)c(N)nc2-c2ccccc2)ccc1=O` [Example 84, 6-[5-amino-3-phenyl-6-(3-pyridyl)-2-pyrazinyl]-2-isopropyl-3(2H)-pyridazinone], the melting point lay in the range of 224 to 225.5 °C.
Under `Cn1nc(-c2nc(-c3ccccc3)c(N)nc2-c2ccccc2)ccc1=O` [Example 85, 6-(5-amino-3,6-diphenyl-2-pyrazinyl)-2-methyl-3(2H)-pyridazinone] stands 220 to 221.5 °C.
Take `Cn1nc(-c2nc(-c3cccs3)c(N)nc2-c2ccccc2)ccc1=O` [Example 86, 6-[5-amino-3-phenyl-6-(2-thienyl)-2-pyrazinyl]-2-methyl-3(2H)-pyridazinone]: the melting point is 177 °C (dec.).
The result for `CC(C)n1nc(-c2nc(/C=C/c3ccccc3)c(N)nc2-c2ccccc2)ccc1=O` [Example 87, 6-{5-amino-3-phenyl-6-[(E)-2-phenylvinyl]-2-pyrazinyl}-2-isopropyl-3(2H)-pyridazinone] reads 244.5 to 245 °C.

One may read the melting point as the temperature of the solid-liquid transition.
